From patent US20230364069A1, “METHOD FOR TREATING NON-ALCOHOLIC STEATOHEPATITIS THROUGH CO-ADMINISTRATION OF CURCUMIN DERIVATIVE AND TGF-B RECEPTOR INHIBITOR” (UNIVERSITY INDUSTRY FOUNDATION, YONSEI UNIVERSITY WONJU …, priority 2021, published 2023) come the findings set out here.

In data set [1] the test system is AML12 cells (mouse hepatocyte cell lines). Put plainly: Cytotoxicity of curcumin derivatives (MTT) with TGF-β treatment. To be noted: 2 ng/ml TGF-β; at concentrations other than 0.1 μM (1, 3, 5 μM); FIG. 1. The class given is cell-based. Here is the method:
Cell experiments were performed by using AML12, […], and LX-2 cells, a human hepatic stellate cell.
AML12 cells were cultured in a culture medium made by adding 5 ml of insulin (ITS), 40 ng/ml of dexamethasone, 1% penicillin streptomycin (anti-anti), and 10% fetal bovine serum (FBS) to F-12 media (Corning Incorporated, USA, Arizona), a mixture of a DMEM medium and Ham's F-12 at a ratio of 50:50, which is used for culturing hepatocytes or prostate epithelial cells.
In order to confirm cytotoxicity, the cells of Example 1-1 were treated with 2 ng/ml of TGF-β, and then with curcumin (CUR), curcumin 5-8 (CURS-8), curcumin 4-8 (CUR4-8), and curcumin 5-14 (CURS-14) at 0.1, 1, 3, and 5 μM, respectively, for the same period of time. Thereafter, cells cultured in an incubator of 5% CO2 at 37° C. were stained with a tetrazolium dye capable of staining surviving cells (MTT), and absorbance was measured by using a spectrophotometer.
By a method described in Example 1-2, the numbers of surviving cells when curcumin (CUR) and curcumin derivatives (CUR5-8, CUR4-8, and CUR5-14) each were co-administered with TGF-β at respective concentrations were measured.

In data set [2] the test system is mouse hepatocyte cell lines (AML12). The experiment in a line: TGF-β-induced fibrosis, co-administration of curcumin derivative and EW-7197 (epithelial-mesenchymal conversion, BODIPY, α-SMA staining, Western blotting). The class given is cell-based. The note with it: 2 ng/ml TGF-β, 24 hours, 1 μM Cur or Cur5-8, 10 μM EW-7197. Here is the method: Fibrosis was induced in hepatocytes with TGF-β, a curcumin derivative and a TGF-β receptor inhibitor were co-administered, and then fibrosis and fat synthesis and degradation were checked.
Specifically, 2 ng/ml of TGF-β was administered to the cells of Example 1-1, the cells were divided into administration groups of vehicle (Veh), 1 μM curcumin (Cur), 1 μM curcumin 5-8 (Cur5-8), 0.5 μM EW-7197 (EW0.5), 10 μM EW-7197 (EW or EW10), 1 μM curcumin and 0.5 μM EW-7197 (EW0.5+Cur), 1 μM curcumin and 10 μM EW-7197 (EW+Cur or EW10+Cur), 1 μM curcumin 5-8 and 0.5 μM EW-7197 (EW0.5+Cur5-8), 1 μM curcumin 5-8 and 10 μM EW-7197 (EW+Cur5-8 or EW10+Cur5-8), respective samples were administered, and culturing was performed for 24 hours. The control group (Con) was not treated with either TGF-β or the sample. […] After washing with PBS 1×, stained cells were observed.
In addition, in order to check the degree of fibrosis of hepatocytes, the cells cultured for 24 hours were fixed with 4% paraformaldehyde and then stained by using α-SMA (Santa Cruz Biotechnology, Inc., Dallas, Texas, USA), an Alexafluor 488 (Cell Signaling Technology, Danvers, Massachusetts, USA) antibody, and DAPI (Abcam plc., Cambridge, MA, USA). The cells were mounted with a mounting solution (Fisher Scientific, Hampton, Rockingham, USA), the manufactured sample was photographed using a confocal microscope to obtain photographs of stained cells, and the degree of color development in the photographs of the stained cells was analyzed with the ImageJ program.
In addition, in order to confirm the degree of fibrosis of hepatocytes, the cells cultured for 24 hours were collected, and protein expressions of α-SMA, Collagen I (Coll), p-SMAD2, and p-SMAD3 were checked by Western blotting with fibrosis markers in the same method as described in <Example 1-3>.
In order to check a synergistic effect of inhibiting fibrosis caused by a TGF-β and inhibiting fat accumulation caused thereby in case of co-administration of a curcumin derivative (Cur5-8) and a TGF-β receptor inhibitor (EW-7197), epithelial-mesenchymal conversion of hepatocytes was confirmed through a cell experiment by the method described in Example 1-5, and BODIPY staining and α-SMA staining were performed. Also, protein expressions of α-SMA, Collagen I p-SMAD2, and p-SMAD3 were checked by Western blotting.

Regarding `COc1cc(C#Cc2cncc(C#Cc3ccc(O)c(OC)c3)c2)ccc1O` [Cur4-8, 4,4′-(3,5-Pyridinediyldi-2,1-ethynediyl)bis(2-methoxyphenol)], the “cytotoxicity (MTT)” value in data set [1] is reported as “cytotoxicity was high”.

Take `COc1cc(/C=C/C(=O)CC(=O)/C=C/c2ccc(O)c(OC)c2)ccc1O` [Cur, curcumin]: in data set [2] (FIG. 8), the “epithelial-mesenchymal conversion caused by TGF-β” value was “not inhibited”. In addition, the “liver fibrosis (α-SMA staining, fibrosis marker Western blotting)” value in data set [2] (FIGS. 8, 10, 11) is listed as “liver fibrosis was induced”.
